Results: patent US20160250128A1, “TARGETED CAPSULES FOR THE DELIVERY OF SKIN WHITENING AGENTS IN THE SKIN” (INFINITEC ACTIVOS, S.L., priority 2013, published 2016)

Tests used:
Human melanocytes [1] = experiment: Cell viability of treated melanocytes (CCK-8); type: cell-based; conditions: IBMX 100 μM alone, control = 100
Protocol: (§1) Day 1—Human melanocytes are rise by trypsinization and centrifuge at 1500 rpm (433×g) in an Allegra X-22R (Beckman Coulter) centrifuge during 5 minutes, and then are resuspended in 1 ml of a complete culture medium to count the number of cells. A volume of 10 μl of the cells solution was dyed with Trypan Blue colorant and the cells are counted with a hemocytometer. Then a cell solution is prepared at a concentration of 2.5×10^5 cells/ml in a complete medium and 100 μl of the cell suspension is seed in wells of 96 well plates. The plates are incubated at 37° C. in a 5% CO2 atmosphere.
Day 2—The seed cells are washed and treated with the different products in basal conditions and promelanogenic conditions. […]
The products are tested at 3 different concentrations in the presence and absence of the melanogenic inductor (100 μM), i.e. isobutyl methyl-xantine (IBMX). […] The melanin accumulation inside the cells is monitored daily by optical microscopy. […]
Day 5—Determination of cell viability: In order to determine de number of viable cells, 10 μl of CCK-8 (WST-8) is added in each well. The plates are incubated at 37° C. during 1 hour and the absorbance is measured at 450 nm using Synergy II multimode (Biotek Instruments Inc., Winooski, Estados Unidos). The mode and SD is calculated for each concentration using Microsoft Excel application (see FIG. 2 and table 2)

Human melanocytes [2] = experiment: Melanin determination in treated melanocytes; type: cell-based; conditions: for % MELANINE CONTENT: determined as in examples 4 and 5, concentration not given
Protocol: as §1
Day 2—The seed cells are washed and treated with the different products in basal conditions and promelanogenic conditions. For that, the medium is removed of wells and 100 μl of the products in basal medium with 0.5% of FBS is added. Previously, the test products are solubilised in the same medium. Arbutin is solubilised in ethanol.
The products are tested at 3 different concentrations in the presence and absence of the melanogenic inductor (100 μM), i.e. isobutyl methyl-xantine (IBMX). The plates are incubated 37° C. and 5% CO2 during 5 days. The experiments are carried out using 4 wells per condition. The melanin accumulation inside the cells is monitored daily by optical microscopy.
Days 3 and 4—All treatments are renewed every 24 hours.
In order to determine the melanin content in cells treated as described in example 4, the medium is removed from each well and cells are washed with PBS 1N and incubated during 3 days at 37° C. facilitating the solubilisation of the melanin in NaOH.
Day 7—Once the solubilisation of melanin is complete, 50 μl de H2O2 MilliQ is added per well and the content is determined by absorbance using a Synergy II (Biotek Instruments Inc., Winooski, USA) at 390 nm. The mode and SD is calculated for each
The activity of several peptides of formula (II) (listed in table 3 below) to reduce melanine was determined as explained in example 5 after treating the cells as explained in example 4.

cultured cells = conditions: cited from earlier work
facial hyperpigmentation = conditions: clinical studies; cited from earlier work
human keratinocytes = experiment: Cytotoxicity assay (MTT); type: cell-based; conditions: positive control 0.1% SDS, 48 h
Protocol: (§2) Human dermal fibroblasts and human keratinocytes were used. The isolated cells were cultured in DMEM culture medium supplemented with 10% FCS and were incubated at 37° C. for maintenance treatment. Untreated cells were used as negative control. The positive control was 0.1% SDS. The microcapsules as obtained in Example 1 were tested in the DMEM culture medium at two concentrations: 0.03% and 0.3%. These weight percentages refer to the weight of the microcapsule in relation to the total weight.
(§3) Cells were seeded at 20000 cells per well in a 96-well plate. 24 hours after seeding, cells were incubated under the conditions described above. After 48 h of incubation at 37° C., the culture medium was removed and the MTT reagent was added. Cells were incubated 2 hours at 37° C. DMSO was then added and the absorbance of the formed formazan salt was measured at A 570 nm. Lower absorbance values correspond to cells with lower metabolic activity, which correlates with an increased damage and, therefore, with an increased cytotoxic effect. Thus, the amount of living cells is proportional to the amount of formazan produced.

Human dermal fibroblasts = experiment: Cytotoxicity assay (MTT); type: cell-based; conditions: positive control 0.1% SDS, 48 h
Protocol: as §2, §3

cultured melanocytes = conditions: cited from earlier work

## CC(C)Cn1c(=O)n(C)c(=O)c2[nH]cnc21 [Isobutyl methyl-xantine (IBMX), Isobutyl methyl-xantine, reference compound]
Human melanocytes [1]
  Cell viability: 90%
Human melanocytes [2]; IBMX 100 μM alone, control = 100
  Melanin content (%): 174 ± 12%

## NC(=O)c1cccnc1 [Niacinamide]
Cultured cells
  melanosome transfer: inhibit melanosome transfer in cultured cells
Facial hyperpigmentation
  appearance of hyperpigmented spots: reduce the appearance of hyperpigmented spots

## CCCCCCCCCCCCOS(=O)(=O)[O-].[Na+] [SDS]
Human keratinocytes
  % cell viability: 13.0%
Human dermal fibroblasts
  % cell viability: 30.0%

## C=CCCCCCCCCC(=O)N[C@@H](Cc1ccccc1)C(=O)O [Sepiwhite, N-undecyl-10-enoyl-L-phenylalanine]
Cultured melanocytes
  melanin production: reduces melanin production in cultured melanocytes

## Ac-Ile-Ser-(d)Leu-Leu-Asp-(d)Ala-Gln-Ser-NH2 (ISLLDAQS; HELM PEPTIDE1{[ac].I.S.[dL].L.D.[dA].Q.S.[am]}$$$$V2.0; SMILES CC[C@H](C)[C@H](NC(C)=O)C(=O)N[C@@H](CO)C(=O)N[C@H](CC(C)C)C(=O)N[C@@H](CC(C)C)C(=O)N[C@@H](CC(=O)O)C(=O)N[C@H](C)C(=O)N[C@@H](CCC(N)=O)C(=O)N[C@@H](CO)C(N)=O) [peptide of formula (II)]
Human melanocytes [2]
  % MELANINE CONTENT: 68%

## Ac-Ile-Ser-Leu-Leu-Asp-(d)Ala-Gln-Ser-NH2 (ISLLDAQS; HELM PEPTIDE1{[ac].I.S.L.L.D.[dA].Q.S.[am]}$$$$V2.0; SMILES CC[C@H](C)[C@H](NC(C)=O)C(=O)N[C@@H](CO)C(=O)N[C@@H](CC(C)C)C(=O)N[C@@H](CC(C)C)C(=O)N[C@@H](CC(=O)O)C(=O)N[C@H](C)C(=O)N[C@@H](CCC(N)=O)C(=O)N[C@@H](CO)C(N)=O) [peptide of formula (II)]
Human melanocytes [2]
  % MELANINE CONTENT: 80%

## Ac-Ile-Ser-Leu-Leu-Asp-Ala-Gln-Ser-NH2 (Ac-ISLLDAQS-NH2) [peptide of formula (II)]
Human melanocytes [2]
  % MELANINE CONTENT: 87%

## Palm-Ile-Ser-(d)Leu-Leu-Asp-(d)Ala-Gln-Ser-NH2 (ISLLDAQS; HELM PEPTIDE1{[CCCCCCCCCCCCCCCC(=O)[*:2]].I.S.[dL].L.D.[dA].Q.S.[am]}$$$$V2.0; SMILES CCCCCCCCCCCCCCCC(=O)N[C@H](C(=O)N[C@@H](CO)C(=O)N[C@H](CC(C)C)C(=O)N[C@@H](CC(C)C)C(=O)N[C@@H](CC(=O)O)C(=O)N[C@H](C)C(=O)N[C@@H](CCC(N)=O)C(=O)N[C@@H](CO)C(N)=O)[C@@H](C)CC) [peptide of formula (II)]
Human melanocytes [2]
  % MELANINE CONTENT: 65%

## Palm-Ile-Ser-Leu-Leu-Asp-(d)Ala-Gln-Ser-NH2 (ISLLDAQS; HELM PEPTIDE1{[CCCCCCCCCCCCCCCC(=O)[*:2]].I.S.L.L.D.[dA].Q.S.[am]}$$$$V2.0; SMILES CCCCCCCCCCCCCCCC(=O)N[C@H](C(=O)N[C@@H](CO)C(=O)N[C@@H](CC(C)C)C(=O)N[C@@H](CC(C)C)C(=O)N[C@@H](CC(=O)O)C(=O)N[C@H](C)C(=O)N[C@@H](CCC(N)=O)C(=O)N[C@@H](CO)C(N)=O)[C@@H](C)CC) [peptide of formula (II)]
Human melanocytes [2]
  % MELANINE CONTENT: 78%

## Palm-Ile-Ser-Leu-Leu-Asp-Ala-Gln-Ser-NH2 (ISLLDAQS; HELM PEPTIDE1{[CCCCCCCCCCCCCCCC(=O)[*:2]].I.S.L.L.D.A.Q.S.[am]}$$$$V2.0; SMILES CCCCCCCCCCCCCCCC(=O)N[C@H](C(=O)N[C@@H](CO)C(=O)N[C@@H](CC(C)C)C(=O)N[C@@H](CC(C)C)C(=O)N[C@@H](CC(=O)O)C(=O)N[C@@H](C)C(=O)N[C@@H](CCC(N)=O)C(=O)N[C@@H](CO)C(N)=O)[C@@H](C)CC) [peptide of formula (II)]
Human melanocytes [2]
  % MELANINE CONTENT: 85%
